Experimental data from patent US20240384350A1, “METHODS OF TREATING CANCER WITH KINASE INHIBITORS” (BOARD OF REGENTS, THE UNIVERSITY OF TEXAS SYSTEM, priority 2021, published 2024).

Columns and labels:
Test in all cases: Ba/F3 drug screening, Cell Titer Glo, IC50 Mut/WT
Assay type in all cases: cell-based
EGFR Ex19del/T790M/L792H = biological target: T1, EGFR Ex19del/T790M/L792H (Homo sapiens, UniProt P00533, DEL746-750/L792H/T790M); conditions: T790M-like-3R, 72 hours
T1 construct: expressed in transfected cells; host or cells: Ba/F3

EGFR L858R S784F = biological target: T2, EGFR L858R S784F (Homo sapiens, UniProt P00533, L858R/S784F); conditions: Classical-Like, 72 hours
T2 construct: expressed in transfected cells; host or cells: Ba/F3 cells, retroviral pBabe-Puro vector (vector made by GeneScript from EGFR L858R)

EGFR L833V = biological target: T3, EGFR L833V (Homo sapiens, UniProt P00533, L833V); conditions: Classical-Like, 72 hours
T3 construct: expressed in transfected cells; host or cells: Ba/F3 cells, retroviral pBabe-Puro vector
Protocol: (§1) Data represent the ratio of the IC50 value for a given TKI for cells with a classical-like EGFR mutation to the IC50 value for cells with wildtype EGFR.
(§2) Ba/F3 cell generation, drug screening, and IC50 approximations. Ba/F3 cells were obtained as a gift from Dr. Gordon Mills (MD Anderson Cancer Center), and maintained in RPMI (Sigma) containing 10% FBS, 1% penicillin/streptomycin, and 10 ng/ml recombinant mIL-3 (R&D Biosystems). To establish stable Ba/F3 cell lines, Ba/F3 cells were transduced with retroviruses containing mutant EGFR plasmids for 12-24 hours.
(§3) After 48-72 hours of transduction, 2 μg/ml puromycin (Invitrogen) was added to Ba/F3 cell lines in complete RPMI. To select for EGFR positive cell lines, cells were stained with PE-EGFR (Biolegend) and sorted by FACS. After sorting, EGFR positive cells were maintained in RPMI containing 10% FBS, 1% penicillin/streptomycin, and 1 ng/ml EGF to support cell viability. […] Shortly, cells were plated in 384-well plates (Greiner Bio-One) at 2000-3000 cells per well in technical triplicate. Seven different concentrations of TKIs or DMSO vehicle were added to reach a final volume of 40 μL per well. After 72 hours, 11 μL of Cell Titer Glo (Promega) was added to each well. Plates were incubated for a minimum of 10 minutes, and bioluminescence was determined using a FLUOstar OPTIMA plate reader (BMG LABTECH). Raw bioluminescence values were normalized to DMSO control treated cells, and values were plotted in GraphPad Prism. […] Drug screens were performed in technical triplicate on each plate and either duplicate or triplicate biological replicates.

EGFR L858R/C797S = biological target: T4, EGFR L858R/C797S (Homo sapiens, UniProt P00533, C797S/L858R); conditions: PACC; L858R/C797S; Ba/F3; 72 hours
T4 construct: expressed in transfected cells; host or cells: Ba/F3

EGFR G719S = biological target: T5, EGFR G719S (Homo sapiens, UniProt P00533, G719S); conditions: PACC; G719S; Ba/F3; 72 hours
T5 construct: expressed in transfected cells; host or cells: Ba/F3
Protocol: (§4) Data represent the ratio of the IC50 value for a given TKI for cells with a PACC EGFR mutation to the IC50 value for cells with wildtype EGFR.
as §2
(§5) After 48-72 hours of transduction, 2 μg/ml puromycin (Invitrogen) was added to Ba/F3 cell lines in complete RPMI. To select for EGFR positive cell lines, cells were stained with PE-EGFR (Biolegend) and sorted by FACS. After sorting, EGFR positive cells were maintained in RPMI containing 10% FBS, 1% penicillin/streptomycin, and 1 ng/ml EGF to support cell viability. Drug screening was performed as previously described^41,42. Shortly, cells were plated in 384-well plates (Greiner Bio-One) at 2000-3000 cells per well in technical triplicate. Seven different concentrations of TKIs or DMSO vehicle were added to reach a final volume of 40 μL per well. After 72 hours, 11 μL of Cell Titer Glo (Promega) was added to each well. Plates were incubated for a minimum of 10 minutes, and bioluminescence was determined using a FLUOstar OPTIMA plate reader (BMG LABTECH). Raw bioluminescence values were normalized to DMSO control treated cells, and values were plotted in GraphPad Prism. […] Drug screens were performed in technical triplicate on each plate and either duplicate or triplicate biological replicates.

EGFR L858R/L792H = biological target: T6, EGFR L858R/L792H (Homo sapiens, UniProt P00533, L792H/L858R); conditions: PACC; L858R/L792H; Ba/F3; 72 hours
T6 construct: expressed in transfected cells; host or cells: Ba/F3

EGFR G719S T790M = biological target: T7, EGFR G719S T790M (Homo sapiens, UniProt P00533, G719S/T790M); conditions: T790M-like-3S, 72 hours
T7 construct: expressed in transfected cells; host or cells: Ba/F3
Protocol: Data represent the ratio of the IC50 value for a given TKI for cells with a T790M-like-3S EGFR mutation to the IC50 value for cells with wildtype EGFR.
as §2, §5

EGFR Ex19del G796S = biological target: T8, EGFR Ex19del G796S (Homo sapiens, UniProt P00533, DEL746-750/G796S); conditions: PACC; Ex19del G796S; Ba/F3; 72 hours
T8 construct: expressed in transfected cells; host or cells: Ba/F3
Protocol: as §4, §2, §5

EGFR L858R G724S = biological target: T9, EGFR L858R G724S (Homo sapiens, UniProt P00533, G724S/L858R); conditions: PACC; L858R G724S; Ba/F3; 72 hours
T9 construct: expressed in transfected cells; host or cells: Ba/F3 (retroviral transduction, pBabe-Puro based vectors)
Protocol: as §4, §2, §5

EGFR L858R = biological target: T10, EGFR L858R (Homo sapiens, UniProt P00533, L858R); conditions: Classical-Like, 72 hours
T10 construct: expressed in transfected cells; host or cells: Ba/F3 cells, retroviral pBabe-Puro vector

EGFR L833F = biological target: T11, EGFR L833F (Homo sapiens, UniProt P00533, L833F); conditions: Classical-Like, 72 hours
T11 construct: expressed in transfected cells; host or cells: Ba/F3 cells, retroviral pBabe-Puro vector

EGFR R776H = biological target: T12, EGFR R776H (Homo sapiens, UniProt P00533, R776H); conditions: PACC; R776H; Ba/F3; 72 hours
T12 construct: host or cells: Ba/F3
Protocol: as §4, §2, §5

EGFR Ex19del T790M L718V = biological target: T13, EGFR Ex19del T790M L718V (Homo sapiens, UniProt P00533, DEL746-750/L718V/T790M); conditions: T790M-like-3S, 72 hours
T13 construct: expressed in transfected cells; host or cells: Ba/F3

EGFR G719A = biological target: T14, EGFR G719A (Homo sapiens, UniProt P00533, G719A); conditions: PACC; G719A; Ba/F3; 72 hours
T14 construct: expressed in transfected cells; host or cells: Ba/F3

[1] = biological target: T15, EGFR L747_K754del insATSPE (Homo sapiens, UniProt P00533, DEL747-749/K754E); conditions: T790M-like-3S, 72 hours
T15 construct: expressed in transfected cells; host or cells: Ba/F3 cells, retroviral pBabe-Puro vector

EGFR L858R/V834L = biological target: T16, EGFR L858R/V834L (Homo sapiens, UniProt P00533, L858R/V834L); conditions: Classical-Like, 72 hours
T16 construct: expressed in transfected cells; host or cells: Ba/F3 cells, retroviral pBabe-Puro vector

EGFR T790M = biological target: T17, EGFR T790M (Homo sapiens, UniProt P00533, T790M); conditions: T790M-like-3S, 72 hours
T17 construct: expressed in transfected cells; host or cells: Ba/F3

EGFR L861R = biological target: T18, EGFR L861R (Homo sapiens, UniProt P00533, L861R); conditions: Classical-Like, 72 hours
T18 construct: expressed in transfected cells; host or cells: Ba/F3 cells, retroviral pBabe-Puro vector (vector made by GeneScript from EGFR WT)

EGFR Ex19del = biological target: T19, EGFR Ex19del (Homo sapiens, UniProt P00533, DEL746-750); conditions: Classical-Like, 72 hours
T19 construct: expressed in transfected cells; host or cells: Ba/F3 cells, retroviral pBabe-Puro vector
Protocol: as §1, §2, §3

EGFR Ex19del T790M C797S = biological target: T20, EGFR Ex19del T790M C797S (Homo sapiens, UniProt P00533, C797S/DEL746-750/T790M); conditions: T790M-like-3R, 72 hours
T20 construct: expressed in transfected cells; host or cells: Ba/F3

EGFR K757R = biological target: T21, EGFR K757R (Homo sapiens, UniProt P00533, K757R); conditions: PACC; K757R; Ba/F3; 72 hours
T21 construct: expressed in transfected cells; host or cells: Ba/F3
Protocol: as §4, §2
After 48-72 hours of transduction, 2 μg/ml puromycin (Invitrogen) was added to Ba/F3 cell lines in complete RPMI. To select for EGFR positive cell lines, cells were stained with PE-EGFR (Biolegend) and sorted by FACS. After sorting, EGFR positive cells were maintained in RPMI containing 10% FBS, 1% penicillin/streptomycin, and 1 ng/ml EGF to support cell viability. Drug screening was performed as previously described^41,42. Shortly, cells were plated in 384-well plates (Greiner Bio-One) at 2000-3000 cells per well in technical triplicate. Seven different concentrations of TKIs or DMSO vehicle were added to reach a final volume of 40 μL per well. After 72 hours, 11 μL of Cell Titer Glo (Promega) was added to each well. Plates were incubated for a minimum of 10 minutes, and bioluminescence was determined using a FLUOstar OPTIMA plate reader (BMG LABTECH). Raw bioluminescence values were normalized to DMSO control treated cells, and values were plotted in GraphPad Prism. […] Drug screens were performed in technical triplicate on each plate and either duplicate or triplicate biological replicates. […] Statistical differences between groups were determined by ANOVA as described in the figure legends.

EGFR L858R T790M L718V = biological target: T22, EGFR L858R T790M L718V (Homo sapiens, UniProt P00533, L718V/L858R/T790M); conditions: T790M-like-3R, 72 hours
T22 construct: expressed in transfected cells; host or cells: Ba/F3

EGFR E709_T710del insD = biological target: T23, EGFR E709_T710del insD (Homo sapiens, UniProt P00533, DEL709-709/T710D); conditions: PACC; E709_T710del insD; Ba/F3; 72 hours
T23 construct: expressed in transfected cells; host or cells: Ba/F3
Protocol: as §4, §2, §5

EGFR S768I V774M = biological target: T24, EGFR S768I V774M (Homo sapiens, UniProt P00533, S768I/V774M); conditions: PACC; S768I V774M; Ba/F3; 72 hours
T24 construct: host or cells: Ba/F3
Protocol: as §4, §2, §5

ratio of IC50 for cells with mutant EGFR to IC50 for cells with wildtype EGFR (Mut/WT) (EGFR Ex19del/T790M/L792H) | ratio of IC50 for cells with mutant EGFR to IC50 for cells with wildtype EGFR (Mut/WT) (EGFR L858R S784F) | ratio of IC50 for cells with mutant EGFR to IC50 for cells with wildtype EGFR (Mut/WT) (EGFR L833V) | ratio of IC50 for cells with mutant EGFR to IC50 for cells with wildtype EGFR (Mut/WT) (EGFR L858R/C797S) | ratio of IC50 for cells with mutant EGFR to IC50 for cells with wildtype EGFR (Mut/WT) (EGFR G719S) | ratio of IC50 for cells with mutant EGFR to IC50 for cells with wildtype EGFR (Mut/WT) (EGFR L858R/L792H) | ratio of IC50 for cells with mutant EGFR to IC50 for cells with wildtype EGFR (Mut/WT) (EGFR G719S T790M) | ratio of IC50 for cells with mutant EGFR to IC50 for cells with wildtype EGFR (Mut/WT) (EGFR Ex19del G796S) | ratio of IC50 for cells with mutant EGFR to IC50 for cells with wildtype EGFR (Mut/WT) (EGFR L858R G724S) | ratio of IC50 for cells with mutant EGFR to IC50 for cells with wildtype EGFR (Mut/WT) (EGFR L858R) | ratio of IC50 for cells with mutant EGFR to IC50 for cells with wildtype EGFR (Mut/WT) (EGFR L833F) | ratio of IC50 for cells with mutant EGFR to IC50 for cells with wildtype EGFR (Mut/WT) (EGFR R776H) | ratio of IC50 for cells with mutant EGFR to IC50 for cells with wildtype EGFR (Mut/WT) (EGFR Ex19del T790M L718V) | ratio of IC50 for cells with mutant EGFR to IC50 for cells with wildtype EGFR (Mut/WT) (EGFR G719A) | ratio of IC50 for cells with mutant EGFR to IC50 for cells with wildtype EGFR (Mut/WT) [1] | ratio of IC50 for cells with mutant EGFR to IC50 for cells with wildtype EGFR (Mut/WT) (EGFR L858R/V834L) | ratio of IC50 for cells with mutant EGFR to IC50 for cells with wildtype EGFR (Mut/WT) (EGFR T790M) | ratio of IC50 for cells with mutant EGFR to IC50 for cells with wildtype EGFR (Mut/WT) (EGFR L861R) | ratio of IC50 for cells with mutant EGFR to IC50 for cells with wildtype EGFR (Mut/WT) (EGFR Ex19del) | ratio of IC50 for cells with mutant EGFR to IC50 for cells with wildtype EGFR (Mut/WT) (EGFR Ex19del T790M C797S) | Compound | further results
74.97 | 0.001643 | 0.003152 | 0.7434 | 0.002634 | 0.346 | 3.949 | 25.15 | 0.02628 | 0.1181 | 0.07887 | 0.1639 | 154.4 | 0.01637 | 4.874 | 0.002571 | 4.92 | 0.01926 | 0.01427 | 33.62 | CN(C)C/C=C/C(=O)Nc1cc2c(Nc3ccc(Cl)c(Br)c3)ncnc2cn1 [Tarlox-TKI] | ratio of IC50 for cells with mutant EGFR to IC50 for cells with wildtype EGFR (Mut/WT) (EGFR K757R): 0.3019; ratio of IC50 for cells with mutant EGFR to IC50 for cells with wildtype EGFR (Mut/WT) (EGFR L858R T790M L718V): 151.6; ratio of IC50 for cells with mutant EGFR to IC50 for cells with wildtype EGFR (Mut/WT) (EGFR E709_T710del insD): 0.782; ratio of IC50 for cells with mutant EGFR to IC50 for cells with wildtype EGFR (Mut/WT) (EGFR S768I V774M): 0.2117
48.51 | 0.06448 | 0.06272 | 0.04539 | 0.002178 | 0.002838 | 3.776 | 0.2371 | 0.0005712 | 0.002159 | 0.1863 | 0.001367 | 89.62 | 0.001888 | 5.465 | 0.009314 | 6.061 | 0.001653 | 0.005832 | 38.03 | COc1cc2ncnc(Nc3ccc(F)c(Cl)c3)c2cc1NC(=O)/C=C/CN1CCCCC1 [Dacomitinib] | ratio of IC50 for cells with mutant EGFR to IC50 for cells with wildtype EGFR (Mut/WT) (EGFR K757R): 0.04087; ratio of IC50 for cells with mutant EGFR to IC50 for cells with wildtype EGFR (Mut/WT) (EGFR L858R T790M L718V): 20.65; ratio of IC50 for cells with mutant EGFR to IC50 for cells with wildtype EGFR (Mut/WT) (EGFR E709_T710del insD): 0.08391; ratio of IC50 for cells with mutant EGFR to IC50 for cells with wildtype EGFR (Mut/WT) (EGFR S768I V774M): 0.1407
